Reference: US20080145372A1, “Bioreductively-Activated Prodrugs” (ANGIOGENE, PHARMACEUTICALS LIMITED, priority 2004, published 2008)

Test: Pulse radiolysis: fragmentation of radical anions
Conditions: prodrug 40 μM, N2O-saturated 50% aqueous 2-propanol, pH 7.4-9.0
Experimental: The rate of fragmentation of intermediate radical anions produced by one-electron reduction is an important determinant of bioreductive prodrug action and can be measured by pulse radiolysis. The magnitude of the rate constant of radical fragmentation indicates the ability of the prodrugs to deliver the drug under hypoxia. The radicals were generated by reduction of the parent prodrugs (40 μM) by the 2-propanol radical generated radiolytically in an N2O-saturated 50% aqueous 2-propanol buffered to pH 7.4-9.0 with potassium phosphate (4 mM). Experiments were performed with a 6 Me V linear accelerator to generate an electron pulse of around 500 ns.

First: CC(OC(=O)Nc1ccn([C@@H]2O[C@H](CO)[C@@H](O)[C@@H]2O)c(=O)n1)c1ccc([N+](=O)[O-])s1 (stereo partly drawn) [Example 1, N^4-(1-(5-nitrothien-2-yl)ethyl)oxycarbonyl-1-β-D-arabinofuranosylcytosine]
Second: O=C(Nc1ccn([C@@H]2O[C@H](CO)[C@@H](O)[C@@H]2O)c(=O)n1)OCc1ccc([N+](=O)[O-])s1 [Example 2, N^4-(5-nitrothien-2-yl)methoxycarbonyl-1-β-D-arabinofuranosylcytosine]
The “First-order rate constant k for the decay of radical anions produced by pulse radiolysis” value (shortened to “First-order rate constant k”) of the first is 4.1-fold higher: 49 s⁻¹ for the first, 12 s⁻¹ for the second.

Going from `CC(OC(=O)Nc1ccn([C@@H]2O[C@H](CO)[C@@H](O)C2(F)F)c(=O)n1)c1ccc([N+](=O)[O-])s1` (stereo partly shown) [Example 3, N^4-(1-(5-nitrothien-2-yl)ethyl)oxycarbonyl-2′,2′-difluoro-2′-deoxycytidine] to `O=C(Nc1ccn([C@@H]2O[C@H](CO)[C@@H](O)C2(F)F)c(=O)n1)OCc1ccc([N+](=O)[O-])s1` [Example 6, N^4-(5-nitrothien-2-yl)methoxycarbonyl-2′,2′-difluoro-2′-deoxycytidine], the “First-order rate constant k” value falls from 102 s⁻¹ to 20 s⁻¹ (5.1-fold).

First: CC(=O)OC[C@H]1O[C@@H](n2ccc(NC(=O)OC(C)c3ccc([N+](=O)[O-])s3)nc2=O)[C@@H](OC(C)=O)[C@@H]1OC(C)=O (stereo partly drawn) [Example 4, Tri-O-acetyl-N^4-(1-(5-nitrothien-2-yl)ethyl)oxycarbonyl-1-β-D-arabinofuranosylcytosine]
Second: CC(=O)O[C@@H]1[C@H](OC(C)=O)[C@@H](C)O[C@H]1n1cc(F)c(NC(=O)OCc2ccc([N+](=O)O)s2)nc1=O [Example 9, 5′-Deoxy-2′,3′-di-O-acetyl-5-fluoro-N^4-((5-nitrothien-2-yl)methoxycarbonyl)cytidine]
The “First-order rate constant k” value of the first is 11-fold higher: 245 s⁻¹ for the first, 22 s⁻¹ for the second.

Compared with `Cn1c(COC(=O)Nc2ccn([C@@H]3O[C@H](CO)[C@@H](O)C3(F)F)c(=O)n2)cnc1[N+](=O)[O-]` [Example 5, N^4-(2-nitro-1-methylimidazol-5-yl)methoxycarbonyl-2′,2′-difluoro-2′-deoxycytidine], `O=C(Nc1ccn([C@@H]2O[C@H](CO)[C@@H](O)[C@@H]2O)c(=O)n1)OCc1ccc([N+](=O)[O-])o1` [Example 12, N^4-(5-nitrofuran-2-yl)methoxycarbonyl-1-β-D-arabinofuranosylcytosine] is 3.3-fold lower in “First-order rate constant k” value: 18 s⁻¹ for the first, 5.5 s⁻¹ for the second.

`O=C(Nc1ncnc2c1ncn2[C@@H]1O[C@H](CO)[C@@H](O)[C@@H]1O)OCc1ccc([N+](=O)[O-])s1` [Example 8, N^6-(5-nitrothien-2-yl)methoxycarbonyl-9-β-D-arabinofuranosyladenine] and `O=C(Nc1nc(F)nc2c1ncn2[C@@H]1O[C@H](CO)[C@@H](O)[C@@H]1O)OCc1ccc([N+](=O)[O-])s1` [Example 10, 2-fluoro-N^6-(5-nitrothien-2-yl)methoxycarbonyl-9-O-D-arabinofuranosyladenine] are within 1.5-fold of each other in “First-order rate constant k” value: 148 s⁻¹ for the first, 144 s⁻¹ for the second.

With `CC(OC(=O)Nc1ccn([C@@H]2O[C@H](CO)[C@@H](O)[C@@H]2O)c(=O)n1)c1ccc([N+](=O)[O-])cc1` (stereo partly drawn) [Example 11, N^4-(1-(4-nitrophenyl)ethoxycarbonyl)-1-β-D-arabinofuranosylcytosine] the “First-order rate constant k” value was 0.4 s⁻¹.

With `O=C(Nc1ccn([C@@H]2O[C@H](CO)[C@@H](O)[C@@H]2O)c(=O)n1)OCc1ccc([N+](=O)[O-])cc1` [N^4-(4-nitrophenyl)methoxycarbonyl-1-β-D-arabinofuranosylcytosine, reference compound] the “First-order rate constant k” value was “too small to measure”.

Test: not given
Conditions: not given

In the case of `O=C(Nc1ccn([C@@H]2O[C@H](CO)[C@@H](O)C2(F)F)c(=O)n1)OCc1ccc([N+](=O)[O-])s1` [Example 6, N^4-(5-nitrothien-2-yl)methoxycarbonyl-2′,2′-difluoro-2′-deoxycytidine], the melting point is reported as 144 to 148 °C.
